Laboratory results taken from US20240226217A9, “METHOD FOR EXTRACTING AND PURIFYING TOTAL FLAVONOIDS FROM CARTHAMUS TINCTORIUS L. LEAF (TFFCL), AND USE THEREOF” (Shaanxi University of Chinese Medicine, priority 2022, published 2024).

System: mice with CCl4-induced chronic liver injury
Assay: CCl4-induced chronic liver injury in mice
Type: in vivo
Conditions: 6 weeks
Description: SPF-grade male C57BL/6 mice were randomly divided into 5 groups, 12 mice in each group. The groups were a control group, a model group, a silibinin group (positive control group), a TFFCL low-dose group, and a TFFCL high-dose group. In addition to the control group, mice in the model group, positive control group, TFFCL low-dose group, and TFFCL high-dose group were intraperitoneally injected with 20% CCl4 (CCl4: olive oil=1:4, 2 mL/kg); mice in the control group were intraperitoneally injected with an equal amount of olive oil solution. Each group was injected twice a week for 6 weeks. The silibinin and TFFCL were separately suspended in 0.5% CMC-Na solution. The silibinin group, TFFCL-L group (low-dose), and TFFCL-H group (high-dose) were administered silibinin 100 mg/kg, TFFCL 20 mg/kg, and TFFCL 40 mg/kg by gavage, respectively; while the control group and the model group were intragastrically administered the same amount of 0.5% CMC-Na solution. Each group was given continuous intragastric administration once a day for 6 weeks. During the animal feeding, the body weight of mice was monitored and recorded weekly; 16 h after the last administration in the 6th week, blood was collected from the orbit of the mice, the liver and spleen of the mice were weighed and photographed, and wet weights of the liver and spleen were recorded. The organ index was calculated (organ index=organ mass/body mass×100%).

## COc1cc(C2Oc3cc([C@H]4Oc5cc(O)cc(O)c5C(=O)[C@@H]4O)ccc3OC2CO)ccc1O (some centres unmarked) [Positive group, silibinin]
Silibinin 100 mg/kg by gavage once a day
  Liver index: 4.42 ± 0.30 %
Silibinin 100 mg/kg
  Spleen index: 0.35 ± 0.02%
  liver tissue CAT: 262.23 ± 73.45 U/mg
  liver tissue GSH-PX: 7.84 ± 3.75 U/mg
  liver tissue MDA: 1.12 ± 0.28 nmol/mg
  liver tissue SOD: 9.33 ± 2.47 U/mg
  serum ALT: 80.58 ± 18.26 U/L
  serum AST: 226.58 ± 45.39 U/L
  serum IL-1β: 152.13 ± 30.49 pg/mL
  serum IL-6: 81.40 ± 15.12 pg/mL
  serum TNF-α: 252.32 ± 34.16 pg/mL
